Test results from publication PMC4965013, “Open Source Drug Discovery with the Malaria Box Compound Collection for Neglected Diseases and Beyond” (PLoS Pathogens, 2016).
Where two headings read alike, the source gives them in different places.

Columns and labels:
P. falciparum 3D7 or K1 = assay: Asexual Blood Stage Imaging Assay (DAPI) V. Avery; type: cell-based; conditions: Plasmodium falciparum; 5µM; read-out: P. falciparum 3D7 asexual blood stage % inhibition (Image)
[1] = test system: P. falciparum 3D7 gametocytes stage IV-V; assay: Gametocyte pLDH assay UMIL; type: cell-based; conditions: Plasmodium falciparum, 3D7, 72 h
Protocol: Columns BO-BR: Taramelli group (Columns BO-BP data presented first in this paper, Columns BQ-BR are new data except as noted below). Gametocytocidal activity at UMIL. The Malaria Box compounds were used for primary screening against P. falciparum 3D7 gametocytes and subsequently for IC50 determination against Pf gametocytes obtained from the 3D7 and the 3D7elo1-pfs16-CBG99 transgenic strain [74], as previously described. The primary screening was performed on stage IV-V gametocytes from the 3D7 strain at 3.7 µM, in 96 well plates, using 100 nM epoxomicin and 1 µM DHA as positive controls and 0.5% DMSO as negative untreated control. […] The dose-response experiments were performed in 96 well plates using the 3D7 strain (pLDH, 72+72h, column BR in heat map) and the 3D7elo1-pfs16-CBG99 (luciferase assay, 72h, column BQ in heat map). Data analysis was performed as described.

[2] = test system: Trypanosoma brucei brucei 427; assay: T. brucei brucei Scynexis; type: cell-based
B. bovis (Texas strain) = assay: B. bovis fluorescence-based growth assay; type: cell-based; conditions: Babesia bovis, in Bos taurus
B. caballi (USDA) = assay: B. caballi fluorescence-based growth assay; type: cell-based; conditions: Babesia caballi
Brugia malayi = Brugia malayi Scynexis; type: cell-based; conditions: 10µM
Protocol: Supplement ppat.1005763.s002.xlsx, sheet "S1 Table Heat Map" | column: Brugia malayi 5d % dead at 10µM Scynexis

S. mansoni adult worms = S. mansoni adult worms LSHTM Bickle; type: cell-based, Schistosoma mansoni; conditions: 15 μM
Protocol: Columns DI-DJ, DL: Bickle group. (columns DI and DL data presented first in this paper, column DJ partially published in ref [95].). […] Male CD1 mice (aged 5–6 weeks) were bred on site using SPF conditions with access of food and water ab libitum. Worms were obtained by portal perfusion of CD1 mice (Charles River, UK) 6 weeks post-infection and 3 worm pairs added to the wells of 48 well plates (Nunc, UK) in 1 ml complete DMEM medium supplemented with 10% fetal calf serum (Gibco, UK), 2 mM L-glutamine, 100 U/ml penicillin, 100 µg/ml streptomycin (cDMEM). A primary adult worm screen was performed in which 400 MMV compounds were tested at 15 µM in 0.15% DMSO. Negative controls contained worms cultured in cDMEM alone and in cDMEM with 0.15% DMSO. Positive control wells contained worms cultured in Praziquantel (Sigma-Aldrich, UK) at 10 µM. Cultures were incubated at 37 °C and 5% CO2. Effects were assessed on day 5 of culture using an inverted microscope (Leitz Diavert Wetzlar, Germany). Any compounds producing complete immobility or ≥ 70% worm motility inhibition plus severe morphological damage were considered hits in the primary screen. […] IC50 for the compounds was calculated using Microsoft XLfit version 5.1.0.0 (2006-2008 ID Business Solutions Ltd). In vitro screening of S. mansoni schistosomula run at LSHTM (London): Schistosomula were prepared as previously reported with the modification of using a 45% and 70% Percoll gradient and the cercarial heads recovered from the 70% layer. All centrifugation steps were done at 350 xg. An appropriate volume of drug Stock was pre-added to wells in 96-well microtiter culture plates (Nunc, UK) containing 100 µl complete M169 (cM169). The wells were then topped up with another 100 µl of cM169 containing 100 schistosomula to give final concentrations of 15 µM of compound per well. Negative controls contained larvae cultured in cM169 alone and in cM169 with 0.5% DMSO. Positive control wells contained schistosomula cultured in Praziquantel (Sigma-Aldrich, UK) at 10 µM. Cultures were incubated at 37 °C and 5% CO2. Effects were assessed on day 3 of culture using an inverted microscope (Leitz Diavert Wetzlar, Germany). Any compounds producing complete immobility or ≥ 70% motility inhibition plus severe morphological damage were considered hits in the larval screen.

[3] = test system: Mycobacterium tuberculosis mc26220 non-replicating; assay: microbe, parasite or virus in culture; type: cell-based
[4] = test system: Mycobacterium marinum in Acanthamoeba castellanii; assay: A. castellanii-M. marinum infection assay; type: cell-based; conditions: 10µM
Protocol: Columns FA-FC: Soldati Group (data presented first in this paper). M. marinum, D. discoideum, and Acathamoeba castellani assays. Each compound of the Malaria Box has been assayed at 10 µM in all three assays. First, the antibiotic activity was assayed directly against Mycobacterium marinum in its culture medium. Second, the toxicity and growth inhibitory effect of the compounds was assayed against the amoeba Dictyostelium discoideum in its culture medium. Finally, the “in cellulo” anti-infective activity of each compound was tested using the intracellular infection system Acanthamoeba castellanii-M. marinum. Values have been normalized using the DMSO carrier. For each assay, values have been normalized to 1.00 using the DMSO carrier, which has no detectable effect on D. discoideum nor M. marinum growth, while rifabutin was used as positive control for the antibiotic assay and the infection assay, as it abolishes M. marinum growth (normalized value under 0.10) in broth at 10 µM and intracellularly at 30 µM [150].

[5] = test system: P. falciparum W2 apicoplast; conditions: 5µM compound; ref [54]; cited from earlier work
[6] = test system: P. falciparum NF54Pfs16 gametocytes stage IV-V; conditions: 5µM; ref [62]; cited from earlier work
[7] = test system: P. falciparum NF54 GFP-Pfs16 gametocytes stage I-III; conditions: ref [64], cited from earlier work
[8] = test system: Perkinsus marinus trophozoites; set-up: method as in ref [96] (a number printed in a supplementary file, which may have a reference list of its own: not looked up in the article's list); conditions: 20µM; ref [96]; cited from earlier work
wild type yeast cells = assay: WT yeast (PMT assay control); conditions: Saccharomyces cerevisiae
Chromera velia = Chromera velia flagellation motility assay; conditions: 1µM
[9] = test system: Schistosoma mansoni schistosomula (somules); assay: S. mansoni somules phenotypic screen Caffrey
[10] = 3.7 µM, read-out: gametocytes 3D7, stage IV-V, pLDH, 72+72h, %inhibition
[11] = 3.7µM, read-out: gametocytes 3D7, stage IV-V, pLDH, 72h, %inhibition
[12] = read-out: % Inhibition in WT yeast (PMT assay control), no added choline
[13] = read-out: % Inhibition in WT yeast (PMT assay control), with added choline

| Compound | inhibition at 5 µM (P. falciparum 3D7 or K1) | inhibition at 3.7 µM [1, 10] | inhibition at 3.7 µM [1, 11] | inhibition at 5 µM [2] | EC50 (B. bovis (Texas strain)) | EC50 (B. caballi (USDA)) | Brugia malayi 5d % dead (Brugia malayi) | Schistosoma mansoni adult worm primary assay % Motility Reduction (Hit ≥ 70%) (S. mansoni adult worms) | inhibition at 25 µM [3] | Mycobacterium marinum growth in Acanthamoeba castellanii DMSO=1 Infection Assay [4] | P. falciparum (W2) asexual growth: ratio w & wout 200µM IPP [5] | gametocyte late stage (IV-V) luciferase % inhibition [6] | gametocyte early stage (I-III) GFP-MTR % inhibition ([7]; 0.5µM) | gametocyte early stage (I-III) GFP-MTR % inhibition ([7]; 5µM) | Perkinsus marinus % growth [8] | inhibition at 100 µM (wild type yeast cells; [12]) | inhibition at 100 µM (wild type yeast cells; [13]) | Chromera velia 24 hr Flagellation (control standardized to ++; 0 = no flagella) (Chromera velia) | Chromera velia 72 hr Flagellation (control standardized to ++; 0 = no flagella) (Chromera velia) | S. mansoni newly transformed schistosomula, visual tox scale, 0 = none, 4=most damaged ([9]; 24 h at 2.5µM) | further results |
| --- | --- | --- | --- | --- | --- | --- | --- | --- | --- | --- | --- | --- | --- | --- | --- | --- | --- | --- | --- | --- | --- |
| CCN(CC)c1cc(C)c2cc(NC(=O)c3cccc(OC)c3)ccc2n1 [MMV000498] | 97% | 11% | 5% | 74% | 10 µM | 9.33 µM | 13% | 0% | 20% | 0.94 | 1.10 | -3.24% | 15% | 16% | 74% | 0% | 0% | ++ | +++ | 2 | S. mansoni newly transformed schistosomula, visual tox scale, 0 = none, 4=most damaged ([9]; 72 h at 2.5µM): 0 |
| CCOC(=O)c1cnc2ccc(OC)cc2c1NCc1ccccc1 [MMV665813] | 97% | 12% | 26% | -25% | 0.72 µM | 5.9 µM | 12% | 0% | 23% | 1.26 | 0.72 | 5.69% | 26% | 17% | 69% | 0% | 0% | +++ | ++ | 1 | S. mansoni newly transformed schistosomula, visual tox scale, 0 = none, 4=most damaged ([9]; 72 h at 2.5µM): 1 |
